Experimental data as given in US5726164A, “Nanosuspensions for intravenous administration” (Novartis Corporation, priority 1995, dated 1998).
“Also recorded” adds a separate entry of the source.

Assays:
water solubility = assay type: physicochemical; details: at room temperature
Description: A staurosporin derivative that is sparingly soluble in water is disclosed, for example, in U.S. Pat. No. 5,093,330 and is derived from staurosporin by additional substitution of the free hydrogen atom at the nitrogen of the N-methylamino substituent. Poor solubility in water is a characteristic property of staurosporin derivatives, which renders them unsuitable for intravenous dosage forms.

[1] = cited from earlier work

Compound: CO[C@@H]1[C@H](N(C)C(=O)c2ccccc2)C[C@H]2O[C@]1(C)n1c3ccccc3c3c4c(c5c6ccccc6n2c5c31)C(=O)NC4 [N-benzoyl-staurosporin]
- solubility (water solubility): < 0.1 µg/mL

Compound: CN[C@@H]1C[C@H]2O[C@@](C)([C@@H]1OC)n1c3ccccc3c3c4c(c5c6ccccc6n2c5c31)C(=O)NC4 [staurosporin]
- water solubility (in words) [1]: particularly poor water solubility; also recorded: extremely low water solubility
